How the values were obtained:
Assay in all cases: Minimum inhibitory concentration (MIC)
Assay type in all cases: cell-based
[1] = test system: Escherichia coli NIHJ JC-2; conditions: NIHJJC2; Escherichia coli NIHJ JC-2; bacterial suspension 10^6 cells/ml; sodium salts tested; read-out: Minimum inhibitory concentration
Description: (§1) The cephalosporin derivatives of the present invention are novel substances, and the antimicrobial activities of their sodium salts are shown by the minimum inhibitory concentrations (MIC, µg/ml) in Table 1, as compared with a typical known cephalosporin compound.

[2] = test system: Pseudomonas aeruginosa E-2; conditions: E2; Pseudomonas aeruginosa E-2; bacterial suspension 10^6 cells/ml; sodium salts tested; read-out: Minimum inhibitory concentration
Description: as §1

[3] = test system: Pseudomonas aeruginosa K-13; conditions: K13; Pseudomonas aeruginosa K-13; bacterial suspension 10^6 cells/ml; sodium salts tested; read-out: Minimum inhibitory concentration
Description: as §1

[4] = test system: Serratia marcescens No. 16-2; conditions: NO.162; Serratia marcescens No. 16-2; bacterial suspension 10^6 cells/ml; sodium salts tested; read-out: Minimum inhibitory concentration
Description: as §1

[5] = test system: Pseudomonas aeruginosa Y-1; conditions: Y1; Pseudomonas aeruginosa Y-1; bacterial suspension 10^6 cells/ml; sodium salts tested; read-out: Minimum inhibitory concentration
Description: as §1

Proteus vulgaris GN-76 = conditions: GN76; Proteus vulgaris GN-76; bacterial suspension 10^6 cells/ml; sodium salts tested; read-out: Minimum inhibitory concentration
Description: as §1

[6] = test system: Klebsiella pneumoniae No. 42; conditions: Klebsiella pneumoniae No. 42; bacterial suspension 10^6 cells/ml; sodium salts tested; read-out: Minimum inhibitory concentration
Description: as §1

[7] = test system: Staphylococcus aureus 209 P JC-1; conditions: 209PJC1; Staphylococcus aureus 209 P JC-1; bacterial suspension 10^6 cells/ml; sodium salts tested; read-out: Minimum inhibitory concentration
Description: as §1

Row | Structure (SMILES) | MIC [1] [µg/mL] | MIC [2] [µg/mL] | MIC [3] [µg/mL] | MIC [4] [µg/mL] | MIC [5] [µg/mL] | MIC (Proteus vulgaris GN-76) [µg/mL] | MIC [6] [µg/mL] | MIC [7] [µg/mL]
1 | CC(=O)OCC1=C(C(=O)O)N2C(=O)[C@@H](NC(=O)C(NC(=O)c3cc(O)c(O)c(O)c3)c3csc(N)n3)[C@H]2SC1 (mixture of isomers) [Example 25, 7β-[DL-2-(3,4,5-trihydroxy-benzoylamino)-2-(2-aminothiazol-4-yl)acetamido]-cephalosporic acid] | 0.2 | 0.2 | 0.39 | > 100 | 0.1 | 1.56 | 0.1 | 0.2
2 | CO[C@@]1(NC(=O)C(NC(=O)c2cc(OC(C)=O)c(OC(C)=O)c(OC(C)=O)c2)c2csc(N)n2)C(=O)N2C(C(=O)O)=C(CSc3nnnn3C)CS[C@@H]21 (mixture of isomers) [Example 11, 7α-methoxy-7β-[DL-2-(3,4,5-triacetoxy-benzoylamino)-2-(2-aminothiazol-4-yl)acetamido]-3-(1-methyl-lH-tetrazol-5-yl-thiomethyl)-3-cephem-4-carboxylic acid] | 6.25 | 0.39 | 0.78 | 6.25 | 0.78 | 3.12 | 0.39 | 6.25
3 | CC(=O)OCC1=C(C(=O)O)N2C(=O)[C@@H](NC(=O)C(NC(=O)c3cccc(O)c3O)c3csc(N)n3)[C@H]2SC1 (mixture of isomers) [Example 21, 7β-[DL-2-(2,3-dihydroxybenzoylamino)-2-(2-aminothiazol-4-yl)acetamido]cephalosporic acid] | 1.56 | 0.39 | 0.78 | > 200 | 3.12 | 1.56 | 0.39 | 3.12
4 | CO[C@@]1(NC(=O)C(NC(=O)c2ccc(OC(C)=O)c(OC(C)=O)c2)c2csc(N)n2)C(=O)N2C(C(=O)O)=C(CSc3nnnn3C)CS[C@@H]21 (mixture of isomers) [Example 10, 7α-methoxy-7β-[DL-2-(3,4-diacetoxy-benzoylamino)-2-(2-aminothiazol-4-yl)acetamidol-3-(1-methyl-lH-tetrazol-5-yl-thiomethyl)-3-cephem-4-carboxylic acid] | 6.25 | 0.2 | 0.2 | 3.12 | 0.2 | 1.56 | 0.2 | 0.78
5 | CO[C@@]1(NC(=O)C(NC(=O)c2ccc(O)c(O)c2)c2csc(N)n2)C(=O)N2C(C(=O)O)=C(COC(C)=O)CS[C@@H]21 (mixture of isomers) [Example 9, 7α-methoxy-7β-[DL-2-(3,4-dihydroxy-benzoylamino)-2-(2-aminothiazol-4-yl)acetamidolcephalosporic acid] | 12.5 | 0.39 | 0.78 | 3.12 | 0.39 | 3.12 | 0.39 | 1.56
6 | CO[C@@]1(NC(=O)C(NC(=O)c2cc(OC(C)=O)c(OC(C)=O)c(OC(C)=O)c2)c2csc(N)n2)C(=O)N2C(C(=O)O)=C(COC(C)=O)CS[C@@H]21 (mixture of isomers) [Example 7, 7α-methoxy-7β-[DL-2-(3,4,5-triacetoxy-benzoylamino)-2-(2-aminothiazol-4-yl)acetamido]-cephalosporic acid] | 12.5 | 0.78 | 1.56 | 50 | 0.78 | 12.5 | 1.56 | 6.25
7 | CC(=O)OCC1=C(C(=O)O)N2C(=O)[C@@H](NC(=O)C(NC(=O)c3cccc(OC(C)=O)c3OC(C)=O)c3csc(N)n3)[C@H]2SC1 (mixture of isomers) [Example 14, 7β-[DL-2-(2,3-diacetoxybenzoylamino)-2-(2-aminothiazol-4-yl)acetamido]cephalosporic acid] | 1.56 | 0.39 | 0.39 | 12.5 | 0.2 | 0.78 | 0.39 | 3.12
8 | CC(=O)OCC1=C(C(=O)O)N2C(=O)[C@@H](NC(=O)C(NC(=O)c3ccc(O)c(O)c3)c3csc(N)n3)[C@H]2SC1 (mixture of isomers) [Example 20, 7β-[DL-2-(3,4-dihydroxybenzoylamino)-2-(2-aminothiazol-4-yl)acetamido]cephalosporic acid] | 0.39 | 0.1 | 0.2 | 6.25 | 0.05 | 0.2 | 0.05 | 0.39
9 | CC(=O)OCC1=C(C(=O)O)N2C(=O)[C@@H](NC(=O)C(NC(=O)c3ccccc3OC(C)=O)c3csc(N)n3)[C@H]2SC1 (mixture of isomers) [Example 15, 7β-[DL-2-(2-acetoxybenzoylamino)-2-(2-aminothiazol-4-yl)acetamido]cephalosporic acid] | 1.56 | 25 | 25 | 200 | 50 | 6.25 | 6.25 | 0.39
10 | CC(=O)OCC1=C(C(=O)O)N2C(=O)[C@@H](NC(=O)C(NC(=O)c3cc(OC(C)=O)c(OC(C)=O)c(OC(C)=O)c3)c3csc(N)n3)[C@H]2SC1 (mixture of isomers) [Example 18, 7β-[DL-2-(3,4,5-triacetoxybenzoylamino)-2-(2-aminothiazol-4-yl)acetamido]cephalosporic acid] | 0.39 | 0.2 | 0.78 | 3.12 | 0.78 | 0.78 | 0.1 | 1.56
11 | CC(=O)OCC1=C(C(=O)O)N2C(=O)[C@@H](NC(=O)C(NC(=O)c3ccc(O)cc3)c3csc(N)n3)[C@H]2SC1 (mixture of isomers) [Example 24, 7β-[DL-2-(4-hydroxybenzoylamino)-2-(2-aminothiazol-4-yl)acetamido]cephalosporic acid] | 3.12 | 25 | 25 | > 200 | 50 | 25 | 6.25 | 0.39
12 | CC(=O)OCC1=C(C(=O)O)N2C(=O)[C@@H](NC(=O)C(NC(=O)c3cccc(OC(C)=O)c3)c3csc(N)n3)[C@H]2SC1 (mixture of isomers) [Example 16, 7β-[DL-2-(3-acetoxybenzoylamino)-2-(2-aminothiazol-4-yl)acetamidolcephalosporic acid] | 1.56 | 200 | 200 | > 200 | > 200 | 6.25 | 3.12 | 0.39
13 | CCOC(=O)Oc1ccc(C(=O)NC(C(=O)N[C@]2(OC)C(=O)N3C(C(=O)O)=C(COC(C)=O)CS[C@@H]32)c2csc(N)n2)cc1OC(=O)OCC (mixture of isomers) [Example 13, 7α -methoxy-7β-[DL-2-(3,4-diethoxy-carbonyloxybenzoylamino)-2-(2-aminothiazol-4-yl)-acetamido]cephalosporic acid] | 12.5 | 0.78 | 1.56 | 3.12 | 0.78 | 6.25 | 0.39 | 1.56
14 | CC(=O)OCC1=C(C(=O)O)N2C(=O)[C@@H](NC(=O)C(NC(=O)c3ccc(OC(C)=O)cc3)c3csc(N)n3)[C@H]2SC1 (mixture of isomers) [Example 17, 7β-[DL-2-(4-acetoxybenzoylamino)-2-(2-aminothiazol-4-yl)acetamido]cephalosporic acid] | 0.78 | 100 | 100 | > 200 | 200 | 6.25 | 3.12 | 0.2
15 | CC(=O)Oc1cc(C(=O)NC(C(=O)N[C@@H]2C(=O)N3C(C(=O)O)=C(CSc4nnnn4C)CS[C@H]23)c2csc(N)n2)cc(OC(C)=O)c1OC(C)=O (mixture of isomers) [Example 3, 7β-[DL-2-(3,4,5-triacetoxybenzoylamino)-2-(2-aminothiazol-4-yl)acetamidol-3-(l-methyl-lH-tetrazol-5-yl-thiomethyl)-3-cephem-4-carboxylic acid] | 0.78 | 0.2 | 0.2 | 0.05 | 0.1 | 0.39 | < 0.05 | 0.78
16 | CCOC(=O)Oc1ccc(C(=O)NC(C(=O)N[C@@H]2C(=O)N3C(C(=O)O)=C(CSc4nnnn4C)CS[C@H]23)c2csc(N)n2)cc1OC(=O)OCC (mixture of isomers) [Example 5, 7β-[DL-2-(3,4-diethoxycarbonyloxy-benzoylamino)-2-(2-aminothiazol-4-yl)acetamido]-3-(l-methyl-lH-tetrazol-5-yl-thiomethyl)-3-cephem-4-carboxylic acid] | 0.78 | 0.39 | 0.2 | 50 | 0.1 | 6.25 | 0.2 | 0.39

Source: EP0115820A2, “Cephalosporin derivatives and process for their preparation” (Kaken Pharmaceutical Co., Ltd., priority 1983, dated 1984)
